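A five-concentration, 48-hour dose response in 96-well plates underlies each endpoint, interpolated linearly between surrounding concentrations. GI50 marks 50% less growth. The concentration for full growth arrest is given as TGI.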
Experiments:
Test in all cases: DTP human tumour cell line panel, 48 h
[1] = test system: MCF7 breast
[2] = test system: ACHN renal
[3] = test system: HOP-92 NSCLC
[4] = test system: HCC-2998 colon
[5] = test system: PC-3 prostate
[6] = test system: SF-268 CNS
[7] = test system: SR leukemia
[8] = test system: K-562 leukemia
[9] = test system: HL-60(TB) leukemia
[10] = test system: MOLT-4 leukemia
[11] = test system: OVCAR-3 ovarian
[12] = test system: CCRF-CEM leukemia
[13] = test system: UACC-62 melanoma
[14] = test system: HS 578T breast
[15] = test system: A498 renal
[16] = test system: MDA-MB-231 breast
[17] = test system: SF-539 CNS
[18] = test system: TK-10 renal
[19] = test system: EKVX NSCLC
[20] = test system: UO-31 renal
[21] = test system: T-47D breast
[22] = test system: IGROV1 ovarian
[23] = test system: HCT-116 colon
[24] = test system: 786-0 renal
[25] = test system: MALME-3M melanoma
[26] = test system: SNB-75 CNS
[27] = test system: LOX IMVI melanoma
[28] = test system: OVCAR-8 ovarian
[29] = test system: A549 NSCLC
[30] = test system: RPMI-8226 leukemia
[31] = test system: SN12C renal
[32] = test system: SK-MEL-5 melanoma
[33] = test system: HOP-62 NSCLC
[34] = test system: KM12 colon
[35] = test system: SF-295 CNS
[36] = test system: UACC-257 melanoma
[37] = test system: MDA-MB-435
[38] = test system: RXF 393 renal
[39] = test system: SW-620 colon
[40] = test system: HCT-15 colon
[41] = test system: M14 melanoma
[42] = test system: SK-OV-3 ovarian
[43] = test system: HT29 colon
[44] = test system: SK-MEL-28 melanoma
[45] = test system: DU-145 prostate
[46] = test system: CAKI-1 renal
[47] = test system: NCI-H23 lung
[48] = test system: OVCAR-4 ovarian
[49] = test system: COLO 205 colon

SMILES: N#C/C(=C\c1ccc(Br)cc1)n1nnc2c(F)cccc21
- GI50 [1]: 0.768 µM
- TGI [1]: > 100 µM
- GI50 [2]: 1.04 µM
- TGI [2]: 2.38 µM
- GI50 [3]: 0.156 µM
- TGI [3]: 4.48 µM
- GI50 [4]: 1.71 µM
- TGI [4]: 3.18 µM
- GI50 [5]: 0.472 µM
- TGI [5]: 2.05 µM
- GI50 [6]: 3.11 µM
- TGI [6]: > 100 µM
- GI50 [7]: 0.441 µM
- TGI [7]: > 100 µM
- GI50 [8]: 0.386 µM
- TGI [8]: > 100 µM
- GI50 [9]: 2.45 µM
- TGI [9]: > 100 µM
- GI50 [10]: 2.48 µM
- TGI [10]: > 100 µM
- GI50 [11]: 0.275 µM
- TGI [11]: 0.845 µM
- GI50 [12]: 0.657 µM
- TGI [12]: 3.13 µM
- GI50 [13]: 0.697 µM
- TGI [13]: 2.17 µM
- GI50 [14]: 3.39 µM
- TGI [14]: > 100 µM
- GI50 [15]: 1.36 µM
- TGI [15]: 4.65 µM
- GI50 [16]: 1.28 µM
- TGI [16]: 4.17 µM
- GI50 [17]: 2.21 µM
- TGI [17]: 5.45 µM
- GI50 [18]: 2.36 µM
- TGI [18]: 6.5 µM
- GI50 [19]: 1.75 µM
- TGI [19]: > 100 µM
- GI50 [20]: 1.04 µM
- TGI [20]: 2.24 µM
- GI50 [21]: 0.353 µM
- TGI [21]: 4.78 µM
- GI50 [22]: 0.715 µM
- TGI [22]: 3.02 µM
- GI50 [23]: 0.503 µM
- TGI [23]: 1.94 µM
- GI50 [24]: 1.29 µM
- TGI [24]: 2.91 µM
- GI50 [25]: 1.44 µM
- TGI [25]: 3.93 µM
- GI50 [26]: 0.043 µM
- TGI [26]: 5.04 µM
- GI50 [27]: 1.41 µM
- TGI [27]: 2.77 µM
- GI50 [28]: 2.87 µM
- TGI [28]: > 100 µM
- GI50 [29]: 1.93 µM
- TGI [29]: > 100 µM

SMILES: CCC(=O)OC1=C(c2ccccc2)Sc2ccc(Cl)cc2-n2cccc21
- TGI [30]: > 10 µM
- TGI [31]: > 10 µM
- TGI [1]: > 10 µM
- TGI [32]: > 10 µM
- TGI [33]: > 10 µM
- TGI [3]: > 10 µM
- TGI [34]: > 10 µM
- TGI [4]: > 10 µM
- TGI [5]: > 10 µM
- TGI [35]: > 10 µM
- TGI [6]: > 10 µM
- TGI [7]: > 10 µM
- TGI [8]: > 10 µM
- TGI [36]: > 10 µM
- TGI [9]: > 10 µM
- TGI [37]: 5.28 µM
- TGI [10]: > 10 µM
- TGI [12]: > 10 µM
- TGI [13]: > 10 µM
- TGI [38]: > 10 µM
- TGI [39]: > 10 µM
- TGI [16]: > 10 µM
- TGI [40]: > 10 µM
- TGI [41]: > 10 µM
- TGI [42]: > 10 µM
- TGI [18]: > 10 µM
- TGI [43]: > 10 µM
- TGI [19]: > 10 µM
- TGI [21]: > 10 µM
- TGI [22]: > 10 µM
- TGI [24]: > 10 µM
- TGI [25]: > 10 µM
- TGI [44]: > 10 µM
- TGI [26]: > 10 µM
- TGI [27]: > 10 µM
- TGI [45]: > 10 µM
- TGI [28]: > 10 µM
- TGI [46]: > 10 µM
- TGI [47]: > 10 µM
- TGI [48]: > 10 µM
- TGI [29]: > 10 µM
- TGI [49]: > 10 µM

Source: PubChem BioAssay (NCI)
